Data as given in patent publication US11485736B2 (KSQ Therapeutics, Inc., priority 2018, dated 2022).

These molecules were tested against USP1/UAF1 (Homo sapiens (Human), UniProt O94782) (assay: Deubiquitination assay for USP1/UAF1 activity (ubiquitin-rhodamine 110)). Conditions: Table 2; 0.05 nM USP1/UAF1, 150 nM ubiquitin-rhodamine.
Chain of USP1/UAF1 (O94782 whole entry): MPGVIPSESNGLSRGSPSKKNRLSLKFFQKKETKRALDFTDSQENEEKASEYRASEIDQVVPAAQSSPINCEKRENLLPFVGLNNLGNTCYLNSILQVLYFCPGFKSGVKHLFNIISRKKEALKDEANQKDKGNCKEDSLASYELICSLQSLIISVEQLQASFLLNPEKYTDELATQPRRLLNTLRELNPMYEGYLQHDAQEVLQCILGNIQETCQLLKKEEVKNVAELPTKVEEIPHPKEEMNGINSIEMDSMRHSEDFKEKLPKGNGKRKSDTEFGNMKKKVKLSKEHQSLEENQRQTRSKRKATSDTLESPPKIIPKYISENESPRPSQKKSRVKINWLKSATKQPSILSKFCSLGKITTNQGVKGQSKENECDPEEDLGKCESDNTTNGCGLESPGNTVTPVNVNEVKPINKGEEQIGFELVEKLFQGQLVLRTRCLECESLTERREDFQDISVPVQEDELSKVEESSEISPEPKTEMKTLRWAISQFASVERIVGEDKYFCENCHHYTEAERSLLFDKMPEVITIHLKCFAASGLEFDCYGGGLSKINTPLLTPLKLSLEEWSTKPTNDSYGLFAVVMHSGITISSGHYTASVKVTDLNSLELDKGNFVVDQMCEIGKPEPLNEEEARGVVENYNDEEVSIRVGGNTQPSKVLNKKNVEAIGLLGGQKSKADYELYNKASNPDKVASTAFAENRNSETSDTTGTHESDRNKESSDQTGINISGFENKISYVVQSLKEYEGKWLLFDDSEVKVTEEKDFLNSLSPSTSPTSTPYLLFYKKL
Chain of USP1/UAF1 (Q8TAF3 whole entry partner): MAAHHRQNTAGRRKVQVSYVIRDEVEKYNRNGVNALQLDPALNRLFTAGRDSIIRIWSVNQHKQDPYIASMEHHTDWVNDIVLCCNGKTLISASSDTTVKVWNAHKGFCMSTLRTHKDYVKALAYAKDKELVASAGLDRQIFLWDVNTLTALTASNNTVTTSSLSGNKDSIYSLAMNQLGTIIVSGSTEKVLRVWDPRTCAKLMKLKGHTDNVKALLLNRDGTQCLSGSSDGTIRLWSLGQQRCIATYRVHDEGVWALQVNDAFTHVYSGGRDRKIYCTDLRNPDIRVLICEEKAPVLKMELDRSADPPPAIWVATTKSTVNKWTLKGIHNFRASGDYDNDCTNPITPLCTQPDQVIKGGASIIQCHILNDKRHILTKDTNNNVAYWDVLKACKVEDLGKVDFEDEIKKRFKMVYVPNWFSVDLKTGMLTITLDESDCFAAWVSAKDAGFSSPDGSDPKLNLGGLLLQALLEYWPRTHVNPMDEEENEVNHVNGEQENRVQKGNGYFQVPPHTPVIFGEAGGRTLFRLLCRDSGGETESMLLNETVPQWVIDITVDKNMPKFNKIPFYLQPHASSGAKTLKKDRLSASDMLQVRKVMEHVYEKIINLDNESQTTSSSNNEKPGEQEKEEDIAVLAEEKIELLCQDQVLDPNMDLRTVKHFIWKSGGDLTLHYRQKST
Format: biochemical
Method: Certain Compounds of the Disclosure were assessed for USP1/UAF1 activity in a Ubiquitin Rhodamine assay modified from those described previously.
Deubiquitinase activity was measured using ubiquitin-rhodamine 110 as a substrate. Cleavage of the amide bond between rhodamine and the c-terminal glycine of ubiquitin yields an increase in fluorescence signal. The assay was conducted in 20 ul total volume of assay buffer (50 mM Tris-HCl, pH 7.8, 0.5 mM EDTA, 0.01% Bovine Serum Albumin, 1 mM DTT, 0.01% Tween-20), and 0.05 nM USP1/UAF1 enzyme.
Compounds, dissolved in DMSO were tested in dose response format, beginning at 10 uM.
Compounds depicted below were added to enzyme/assay buffer mix and incubated 10 min.
Data for all assay formats was calculated as percent inhibition compared with control wells. […] IC50 values were calculated using the standard four parameter curve fitting algorithm in either Prism GraphPad (La Jolla, Calif.) software, or Collaborative Drug Discovery (Burlingame, Calif.) CDD Vault.
`Cc1cc(C(F)(F)F)nn1-c1ccc(Cn2ncc3cnc(-c4ccccc4C(C)C)nc32)cc1` [drawing 716] gave an IC50 of 10 to 100 nM. `Cc1nn(Cc2ccc(-c3nc(C(F)(F)F)cn3C)cc2)c2nc(-c3ccccc3C(C)C)ncc12` [drawing 729] showed an IC50 of less than 10 nM. For `COc1ccccc1-c1ncc2cnn(Cc3ccc(-c4nc(C(F)(F)F)cn4C)cc3)c2n1` [drawing 715], the IC50 was 10 to 100 nM. Work on `COc1nccc(C#N)c1-c1ncc2cnn(Cc3ccc(-c4nc(C(F)(F)F)cn4C)cc3)c2n1` yielded an IC50 of 10 to 100 nM. With `COc1ncnc(C)c1-c1ncc2cnn(Cc3ccc(-c4nc(C(F)(F)F)cn4C)cc3)c2n1` [drawing 712] the IC50 was 10 to 100 nM. For `Cc1cc(C(F)(F)F)nn1-c1ccc(Cn2ncc3cnc(-c4cccnc4C(C)C)nc32)cc1` [drawing 713], the IC50 was 10 to 100 nM. For `COc1ncnc(C2CC2)c1-c1ncc2cnn(Cc3ccc(-c4nc(C(F)(F)F)cn4C)cc3)c2n1` [drawing 720], the IC50 was 10 to 100 nM.

Same assay, conditions: Table 3; 0.05 nM USP1/UAF1, 150 nM ubiquitin-rhodamine
Work on `COc1ncnc(C2CC2)c1-c1ncc2cnn(Cc3ccc(-c4nc(C(F)F)n(C)n4)cc3)c2n1` yielded an IC50 greater than 200 nM. For `COc1ncnc(C2CC2)c1-c1ncc2cnn(Cc3ccc(-c4nc(C(F)(F)F)c5n4CCNC5)cc3)c2n1` [drawing 773], the IC50 was 10 to 100 nM. For `CCn1cc(C(F)(F)F)nc1-c1ccc(Cn2ncc3cnc(-c4c(OC5CCC5)ncnc4C4CC4)nc32)cc1` [drawing 752], the IC50 was 10 to 100 nM. Work on `CCn1cc(C(F)(F)F)nc1-c1ccc(Cn2ncc3cnc(-c4c(OCc5ccccc5)ncnc4C4CC4)nc32)cc1` yielded an IC50 of 100 to 200 nM. `COc1ncnc(C2CC2)c1-c1ncc2cnn(Cc3ccc(-n4nc(C#N)cc4C)cc3)c2n1` showed an IC50 of 10 to 100 nM. `COCCOc1ncnc(C)c1-c1ncc2cnn(Cc3ccc(-n4nc(C(F)(F)F)cc4C)cc3)c2n1` [drawing 789] gave an IC50 greater than 200 nM. `COc1ncnc(C2CC2)c1-c1ncc2cnn(Cc3ccc(-c4nc(C(F)(F)F)cn4C4CC4)cc3)c2n1` [drawing 739] gave an IC50 of 10 to 100 nM. `COc1ncnc(C)c1-c1ncc2cnn(Cc3ccc(-n4nc(C(F)(F)F)cc4C)cc3)c2n1` [drawing 784] gave an IC50 of 100 to 200 nM. `COc1ncnc(C)c1-c1ncc2cnn(Cc3ccc(-n4nc(C(F)(F)F)cc4OC)cc3)c2n1` showed an IC50 of 100 to 200 nM. Work on `COc1ncnc(C2CC2)c1-c1ncc2cnn(Cc3ccc(-c4nc(C(F)(F)F)cn4C4COC4)cc3)c2n1` [drawing 770] yielded an IC50 of 10 to 100 nM. Molecule `COc1ncnc(C2CC2)c1-c1ncc2cnn(Cc3ccc(-c4cn(C)c(C(F)(F)F)n4)cc3)c2n1` [drawing 736] has an IC50 of 10 to 100 nM. `Cc1ncnc(C(C)C)c1-c1ncc2cnn(Cc3ccc(-n4nc(C(F)(F)F)cc4C)cc3)c2n1` [drawing 776] was tested, and the IC50 was 10 to 100 nM. In the case of `CCOc1ncnc(C2CC2)c1-c1ncc2cnn(Cc3ccc(-c4nc(C(F)(F)F)cn4C)cc3)c2n1` [drawing 763], the IC50 is reported as 10 to 100 nM. `CCn1cc(C(F)(F)F)nc1-c1ccc([C@@H](C)n2ncc3cnc(-c4c(OC)ncnc4C4CCC4)nc32)cc1` (single isomer, unassigned) [drawing 742] showed an IC50 of 10 to 100 nM. For `CCn1cc(C(F)(F)F)nc1-c1ccc([C@@H](C)n2ncc3cnc(-c4c(OC)ncnc4C4CC4)nc32)cc1` (single isomer, unassigned) [drawing 747], the IC50 was 10 to 100 nM. Work on `COc1ncnc(C2CC2)c1-c1ncc2cnn(Cc3ccc(-n4nc(C(F)(F)F)cc4OC)cc3)c2n1` [drawing 737] yielded an IC50 of 10 to 100 nM. For `CCn1cc(C(F)(F)F)nc1-c1ccc(Cn2ncc3cnc(-c4c(OC)ncnc4C4CC4)nc32)cn1` [drawing 767], the IC50 was 10 to 100 nM. For `CNc1ncnc(C2CC2)c1-c1ncc2cnn(Cc3ccc(-c4nc(C(F)(F)F)cn4C)cc3)c2n1`, the IC50 was 10 to 100 nM. Molecule `Cn1cc(C(F)(F)F)nc1-c1ccc(Cn2ncc3cnc(-c4c(C#N)ncnc4C4CC4)nc32)cc1` has an IC50 of 10 to 100 nM. Work on `CCn1cc(C(F)(F)F)nc1-c1ccc(Cn2ncc3cnc(-c4c(OC5CC5)ncnc4C4CC4)nc32)cc1` [drawing 750] yielded an IC50 of 10 to 100 nM.

Same assay, conditions: Table 4; 0.05 nM USP1/UAF1, 150 nM ubiquitin-rhodamine
Molecule `COc1ncnc(C2CC2)c1-c1ncc2c(OC)nn([C@@H](C)c3ccc(-c4nc(C(F)(F)F)cn4C(C)C)cc3)c2n1` [drawing 814] has an IC50 of 10 to 100 nM. `CCn1cc(C(F)(F)F)nc1-c1ccc(Cn2nc(OC3CCC3)c3cnc(-c4c(OC)ncnc4C4CC4)nc32)cc1` [drawing 806] gave an IC50 of 10 to 100 nM. For `COc1ncnc(C2CC2)c1-c1ncc2nc(C3CC3)n(Cc3ccc(-n4nc(C(F)(F)F)cc4C)cc3)c2n1` [drawing 822], the IC50 was 10 to 100 nM. For `COc1ncnc(C2CC2)c1-c1ncc2ccn(Cc3ccc(-c4nc(C(F)(F)F)cn4C(C)C)cc3)c2n1`, the IC50 was less than 10 nM. `COc1ncnc(C2CC2)c1-c1ncc2nc(C)n(Cc3ccc(-c4nc(C(F)(F)F)cn4C)cc3)c2n1` [drawing 821] was tested, and the IC50 was 100 to 200 nM. Molecule `CCn1cc(C(F)(F)F)nc1-c1ccc([C@H](C)n2nc(OC)c3cnc(-c4c(OC)ncnc4C4CC4)nc32)cc1` [drawing 813] has an IC50 of 10 to 100 nM. In the case of `COCc1nc2cnc(-c3c(OC)ncnc3C3CC3)nc2n1Cc1ccc(-c2nc(C(F)(F)F)cn2C(C)C)cc1` [drawing 804], the IC50 is reported as 10 to 100 nM. Work on `CCn1cc(C(F)(F)F)nc1-c1ccc(Cn2nc(OC)c3cnc(-c4c(OC)ncnc4C4CC4)nc32)cc1` [drawing 819] yielded an IC50 of 10 to 100 nM. Work on `COc1ncnc(C2CC2)c1-c1ncc2c(OC)nn(Cc3ccc(-c4cn(C(C)C)c(C(F)(F)F)n4)cc3)c2n1` [drawing 807] yielded an IC50 of 10 to 100 nM.
